From patent US5739302A, “Manufacture and use of novel glycosides of catechol estrogens” (priority 1991, dated 1998)
Converted amounts (≈) assume the structure as drawn. Like-named read-outs stand apart in the source and are kept apart here.

How the values were obtained:
Solubility in water = assay type: physicochemical
Method: For example, the volume of water required to dissolve 1 mg of various glycosides is as following; 2 to 3 ml for 17-glucoside, 2 ml for 17-maltoside, 0.7 ml for 2-glucoside, and 3 ml for 3-glucoside, while 1 mg of 2-hydroxyestradiol cannot be dissolved in 3 ml of water. Accordingly, the glycosides obtained in the present invention provide a way to prepare an injection containing the same.

Male mice of ddY strain = assay: Acute toxicity (intraperitoneal injection); assay type: in vivo, mouse; conditions: 250, 500, 750 or 1000 mg/kg i.p.; observation period of 2 weeks
Method: (§1) Male mice of ddY strain were received 2-OHE2 17-Glu or 2-OHE2 2-Glu by an intraperitoneal injection at doses of 250 mg, 500 mg, 750 mg, or 1000 mg/kg body weight.

[1] = Acute toxicity (intraperitoneal injection); assay type: in vivo, mouse; conditions: mouse, in vivo, ip; male ddY mice, intraperitoneal; 2 weeks
Method: as §1

rat brain homogenate = assay: Inhibitory effect on the lipid peroxidation of rat brain homogenate (thiobarbituric acid method); assay type: biochemical; conditions: for amount of lipid peroxides in terms of malondialdehyde: 37° C.
Method: (Inhibitory effect of 2-hydroxyestradiol 2-glucoside on the lipid peroxidation of rat brain homogenate)
2-Hydroxyestradiol 2-(β-D-glucopyranoside) (2-OHE2 2-Glu) obtained according to the method of this invention (Example 16) was dissolved in water to give a concentration of 1 mM or 0.5 mM. The reaction mixture contains the followings in a final volume of 2 ml; 1.98 ml of rat brain homogenate (10 mg protein/ml) and 2-OHE2 2-Glu at a concentration of 5 μM or 10 μM. After incubation at 37° C., lipid peroxide level was determined by the thiobarbituric acid method.
Values in Table 2 indicate the amount of lipid peroxides (nmol/mg protein
in terms of malondialdehyde.

rat liver homogenate = assay: Inhibitory effect on the lipid peroxidation of rat liver homogenate (thiobarbituric acid method); assay type: biochemical; conditions: 10 μM; 4 hours at 37° C.
Method: (Inhibitory effect of 2-hydroxyestradiol 2-glucoside on the lipid peroxidation of rat liver homogenate)
A rat liver homogenate was prepared in 4 volume of 0.15M KCl .2-OHE2 2-Glu was dissolved in distilled water and 2-OHE2, in 1% DMSO, to give a final concentration of 1 mM. The reaction mixture contained the followings in a final volume of 2 ml; 1.98 ml of rat liver homogenate (10 mg protein/ml) and 10 μM either 2-PHE2 2-Glu or 2-OHE2. As blank tests, the same volume of distilled water or 1% DMSO was added in place of 2-OHE2 2-Glu or 2-OHE2. After incubation for 4 hours at 37° C., lipid peroxide level was determined by the thiobarbituric acid method.

[2] = test system: low-density lipoprotein (LDL); assay: Inhibitory effect on the lipid peroxidation of low-density lipoprotein (CuSO4-induced; methylene blue method); assay type: biochemical, rabbit (hypercholesterolemic); conditions: for amount of lipid peroxides: LDL + CuSO4, 5 nmol compound in 1 ml
Method: (Inhibitory effect of 2-hydroxyestradiol 17-glucoside on the lipid peroxidation of low-density lipoprotein)
Low-density lipoprotein (LDL) was prepared from hypercholesterolemic rabbit serum. 2-Hydroxyestradiol 17-(β-D-glucopyranoside) (2-OHE2 17-Glu) obtained according to the method of this invention (Example 4 ) was dissolved in distilled water and 2-hydroxyestradiol (2-OHE2) as a reference compound, in dimethylsulfoxide (DMSO), to give a final concentration of 500 μM. The reaction mixture contained the followings in a final volume of 1 ml: 500 μg of LDL; 5 nmol of CuSO4; and 5 nmol of either 2-OHE2 17-Glu or 2-OHE2. As blank tests, distilled water or DMSO was added in place of 2-OHE2 17-Glu or 2-OHE2. After incubation for a definite time at […], the amount of lipid hydroperoxides generated was determined by the methylene blue method.
Values in TABLE 1 indicate the amount of lipid peroxides (nmol/mg

red blood cells = assay: Incorporation of glycosides of 2-hydroxyestradiol into red blood cells; assay type: in vitro ADME
Method: (§2) (Incorporation of glycosides of 2-hydroxyestradiol into red blood cells)
(§3) The reaction mixture contained 0.2 nmol of 2-OHE2, 2-OHE2 17-Glu, or 2-hydroxyestradiol 17-(β-maltoside) (2-OHE2 17-Mal, obtained in Example 5) in 0.1 ml of 0.2% DMSO-0.1% ascorbic acid in phosphate buffered saline (PBS) and 0.9 ml of suspension of red blood cells in PBS. After incubation at 37° C. for several intervals, the mixture was centrifuged and supernatant fraction was obtained, and then the amount of each glycoside of 2-hydroxyestradiol remained in the supernatant was determined by HPLC.
(§4) Values in Table 3 indicate residual amount (%) in the incubation medium.

[3] = as above; assay type: in vitro ADME; conditions: red blood cell suspension, 0.2 nmol compound, 37° C., read-out: residual amount in the incubation medium
Method: as §2, §3, §4

| Compound | solubility (Solubility in water) [mL] | solubility (Solubility in water; water) [µg/mL] | abnormal symptoms (in words) (Male mice of ddY strain) | survival (in words) (Male mice of ddY strain) | LD50 at 336 h [1] [mg/kg] | inhibition of the lipid peroxidation (rat liver homogenate) [%] | amount of lipid peroxides ([2]; incubation 1 hr) [nmol/mg protein] | amount of lipid peroxides ([2]; incubation 2 hr) [nmol/mg protein] | amount of lipid peroxides ([2]; incubation 3 hr) [nmol/mg protein] | amount of lipid peroxides ([2]; incubation 4 hr) [nmol/mg protein] | incorporation into red blood cells (in words) (red blood cells) | also measured |
| --- | --- | --- | --- | --- | --- | --- | --- | --- | --- | --- | --- | --- |
| C[C@]12CC[C@@H]3c4cc(O)c(O[C@@H]5O[C@H](CO)[C@@H](O)[C@H](O)[C@H]5O)cc4CC[C@H]3[C@@H]1CC[C@@H]2O [2-Hydroxyestradiol 3-(β-D-glucopyranoside)] | 3 | 333 (≈ 740 µM) | – | – | – | – | – | – | – | – | – | – |
| C[C@]12CC[C@@H]3c4cc(O[C@@H]5O[C@H](CO)[C@@H](O)[C@H](O)[C@H]5O)c(O)cc4CC[C@H]3[C@@H]1CC[C@@H]2O [2-OHE2 2-Glu, 2-Hydroxyestradiol 2-(β-D-glucopyranoside)] | 0.5 to 1 | 1430 (≈ 3170 µM) | no abnormal symptom was found | All mice survived | > 100 | 77 | – | – | – | – | – | inhibition of the lipid peroxidation (in words) (rat brain homogenate; 5 μM and 10 μM): strongly inhibited the lipid peroxidation in a concentration dependent manner; amount of lipid peroxides in terms of malondialdehyde (rat brain homogenate; 5 μM, incubation 0 hr): 0.271 nmol/mg protein; amount of lipid peroxides in terms of malondialdehyde (rat brain homogenate; 5 μM, incubation 1 hr): 1.124 nmol/mg protein; amount of lipid peroxides in terms of malondialdehyde (rat brain homogenate; 5 μM, incubation 2 hr): 1.867 nmol/mg protein; amount of lipid peroxides in terms of malondialdehyde (rat brain homogenate; 5 μM, incubation 4 hr): 3.167 nmol/mg protein; amount of lipid peroxides in terms of malondialdehyde (rat brain homogenate; 10 μM, incubation 0 hr): 0.271 nmol/mg protein; amount of lipid peroxides in terms of malondialdehyde (rat brain homogenate; 10 μM, incubation 1 hr): 0.905 nmol/mg protein; amount of lipid peroxides in terms of malondialdehyde (rat brain homogenate; 10 μM, incubation 2 hr): 1.326 nmol/mg protein; amount of lipid peroxides in terms of malondialdehyde (rat brain homogenate; 10 μM, incubation 4 hr): 1.534 nmol/mg protein |
| C[C@]12CC[C@@H]3c4cc(O)c(O)cc4CC[C@H]3[C@@H]1CC[C@@H]2O[C@@H]1O[C@H](CO)[C@@H](O)[C@H](O)[C@H]1O [2-OHE2 17-Glu, 2-Hydroxyestradiol 17-(β-D-glucopyranoside)] | 2 to 3 | 333 to 500 (≈ 740 to 1110 µM) | no abnormal symptom was found | All mice survived | > 100 | – | 8.93 | 19.48 | 24.76 | 32.17 | markedly retarded as compared with that of 2-OHE2 | inhibitory potency on LDL peroxidation (in words) ([2]; compared with 2-OHE2): the same to that of 2-OHE2; inhibition of the peroxidation of LDL (in words) ([2]; in words): clearly inhibited the peroxidation of LDL |
| C[C@]12CC[C@@H]3c4cc(O)c(O)cc4CC[C@H]3[C@@H]1CC[C@@H]2O[C@@H]1O[C@H](CO)[C@@H](O[C@H]2O[C@H](CO)[C@@H](O)[C@H](O)[C@H]2O)[C@H](O)[C@H]1O [2-OHE2 17-Mal, 2-hydroxyestradiol 17-(β-maltoside)] | 2 | 500 (≈ 816 µM) | – | – | – | – | – | – | – | – | markedly retarded as compared with that of 2-OHE2 | – |
| C[C@]12CC[C@@H]3c4cc(O)c(O)cc4CC[C@H]3[C@@H]1CC[C@@H]2O [Example 2-OHE2, 2-hydroxyestradiol, reference compound] | – | – | – | – | – | 73 | 17.45 | 24.55 | 27.29 | 30.74 | – | remaining at 0.5 min ([3]; 0.5 min): 4.4%; remaining at 1 min ([3]; 1.0 min): 4.4%; remaining at 2 min ([3]; 2.0 min): 3.7%; solubility (Solubility in water; per 1 mg, water, read-out: volume of water required to dissolve 1 mg): < 333 µg/mL |
